Results reported in patent US20090305266A1, “TEST FOR OVARIAN CANCER BY DETECTING ABNORMALITY IN FANCD2 PATHWAY” (priority 2006, published 2009).

Experiments:
Assay type in all cases: cell-based, human
[1] = system: ovarian surface epithelium (OSE) cells; assay: MMC/DEB-induced chromosomal breakage and radial formation in primary ovarian epithelial cell cultures; conditions: 40 ng/ml MMC or 200 ng/ml DEB, 48 hours
Method: (§1) The ovarian cells were scraped from the ovarian surface and enzymatically disaggregated with Collagenase I (GIBCO-Invitrogen, Grand Island, N.Y.) for 4 hours. The cells were washed in RPMI 1640 medium (GIBCO-Invitrogen) and plated in 25 cm^2 flasks coated with collagen in RPMI 1640 supplemented with 20% FCS (Hyclone, Logan, Utah), 10 μg/ml insulin (Sigma, St. Louis, Mo.) and 10 ng/ml EGF (R&D Systems, Minneapolis, Minn.). Studies were performed on primary cells and immortalized cells. Ovarian cells were immortalized by transduction with a retrovirus expressing SV40 large T-antigen obtained from cell line Ψ-2/U195 (Saito et al., Mutat. Res. 294:255-62, 1993; Williams et al., Mol. Cell Bio. 8:3864-71, 1988). SV40-transformed ovarian epithelial cells were transduced with pMMP retroviral vectors containing full-length FANCD2 cDNA produced from the AM12/RVD2 cell line (Naf et al., Mol. Cell Biol. 18:5952-60, 1998; Kuang et al., Blood 96:1625-32, 2000).
(§2) These cultures were then harvested after a 2 hour exposure to 0.25 μg/ml Colcemid (Sigma). Following a 10 minute treatment with hypotonic solution (0.075 M KCl, 5% fetal calf serum) the cells were fixed with a 3:1 mixture of methanol:acetic acid. Slides were stained with Wright's stain, and breaks and radial formation was assessed by counting the number of breaks and radials in a representative number of cells.

[2] = system: peripheral blood mono-lymphocytes (PBML); assay: MMC/DEB-induced chromosomal breakage and radial formation in PHA-stimulated peripheral blood lymphocytes;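 note: 40 ng/mL MMC and 200 ng/mL DEB for 48 hours at 37 °C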
Method: Peripheral blood was obtained from all subjects.
as §2

[3] = system: SV40-transformed OV-HR2 ovarian epithelial cells; assay: MMC/DEB-induced radial formation, SV40-transformed OV-HR2 cells with and without FANCD2 complementation (FIG. 4B); conditions: 40 ng/ml MMC or 200 ng/mL DEB, 48 hours, 50 metaphases
Method: as §1, §2

[4] = system: SV40-transformed OV-CA4 ovarian epithelial cells; assay: MMC/DEB-induced radial formation, SV40-transformed OV-CA4 cells with and without FANCD2 complementation (FIG. 4B); conditions: 40 ng/ml MMC or 200 ng/mL DEB, 48 hours, 50 metaphases
Method: as §1, §2

[5] = lymphocytes of case OV-CA 1 (carcinoma)
[6] = lymphocytes of case OV-CA 2 (carcinoma)
[7] = lymphocytes of case OV-CA 3 (carcinoma)
[8] = lymphocytes of case OV-CA 4 (carcinoma)
[9] = lymphocytes of case OV-CA 5 (carcinoma)
[10] = lymphocytes of case OV-CA 6 (carcinoma)
[11] = lymphocytes of case OV-CA 7 (carcinoma)
[12] = lymphocytes of case OV-CA 8 (carcinoma)
[13] = lymphocytes of case OV-HR 1 (high-risk)
[14] = lymphocytes of case OV-HR 2 (high-risk)
[15] = lymphocytes of case OV-HR 3 (high-risk)
[16] = lymphocytes of case OV-HR 4 L (high-risk)
[17] = lymphocytes of case OV-HR 5 L (high-risk)
[18] = lymphocytes of case OV-HR 5 R (high-risk)
[19] = lymphocytes of case OV-NL 3 (normal)
[20] = lymphocytes of case OV-NL 9 L (normal)
[21] = lymphocytes of case OV-NL 9 R (normal)
[22] = OV-HR2, FANCD2-complemented (retroviral FANCD2 cDNA)
[23] = OV-HR2, FANCD2-deficient (before FANCD2 expression)
[24] = OV-CA4, FANCD2-complemented (retroviral FANCD2 cDNA)
[25] = OV-CA4, FANCD2-deficient (before FANCD2 expression)

C1OC1C1CO1 (stereo not shown) [DEB, Diepoxybutane]
Radials (%) OSE MMC/DEB ([1]; case OV-CA 1 (carcinoma)): 16%
Radials (%) OSE MMC/DEB ([1]; case OV-CA 2 (carcinoma)): 10%
Radials (%) OSE MMC/DEB ([1]; case OV-CA 3 (carcinoma)): 14%
Radials (%) OSE MMC/DEB ([1]; case OV-CA 4 (carcinoma)): 48%
Radials (%) OSE MMC/DEB ([1]; case OV-CA 5 (carcinoma)): 2%
Radials (%) OSE MMC/DEB ([1]; case OV-HR 1 (high-risk)): 14%
Radials (%) OSE MMC/DEB ([1]; case OV-HR 2 (high-risk)): 64%
Radials (%) OSE MMC/DEB ([1]; case OV-HR 3 (high-risk)): 55%
Radials (%) OSE MMC/DEB ([1]; case OV-HR 4 L (high-risk)): 50%
Radials (%) OSE MMC/DEB ([1]; case OV-HR 5 L (high-risk)): 20%
Radials (%) OSE MMC/DEB ([1]; case OV-HR 5 R (high-risk)): 12%
Radials (%) OSE MMC/DEB ([1]; case OV-NL 1 (normal)): 0/0%
Radials (%) OSE MMC/DEB ([1]; case OV-NL 2 (normal)): 0/0%
Radials (%) OSE MMC/DEB ([1]; case OV-NL 3 (normal)): 0%
Radials (%) OSE MMC/DEB ([1]; case OV-NL 4 (normal)): 1%
Radials (%) OSE MMC/DEB ([1]; case OV-NL 5 (normal)): 1/1%
Radials (%) OSE MMC/DEB ([1]; case OV-NL 6 L (normal)): 0/0%
Radials (%) OSE MMC/DEB ([1]; case OV-NL 6 R (normal)): 0/0%
Radials (%) OSE MMC/DEB ([1]; case OV-NL 7 (normal)): 2%
Radials (%) OSE MMC/DEB ([1]; case OV-NL 8 (normal)): 3/3%
Radials (%) OSE MMC/DEB ([1]; case OV-NL 9 L (normal)): 0/0%
Radials (%) OSE MMC/DEB ([1]; case OV-NL 9 R (normal)): 0/0%
Radials (%) PBML MMC/DEB [2, 5]: 0%
Radials (%) PBML MMC/DEB [2, 6]: 0%
Radials (%) PBML MMC/DEB [2, 7]: 1/1%
Radials (%) PBML MMC/DEB [2, 8]: 2%
Radials (%) PBML MMC/DEB [2, 9]: 0%
Radials (%) PBML MMC/DEB [2, 10]: 1/1%
Radials (%) PBML MMC/DEB [2, 11]: 1%
Radials (%) PBML MMC/DEB [2, 12]: 1%
Radials (%) PBML MMC/DEB [2, 13]: 0/0%
Radials (%) PBML MMC/DEB [2, 14]: 0/0%
Radials (%) PBML MMC/DEB [2, 15]: 0%
Radials (%) PBML MMC/DEB [2, 16]: 0/0%
Radials (%) PBML MMC/DEB [2, 17]: 1%
Radials (%) PBML MMC/DEB [2, 18]: 0/0%
Radials (%) PBML MMC/DEB [2, 19]: 0/0%
Radials (%) PBML MMC/DEB [2, 20]: 0/0%
Radials (%) PBML MMC/DEB [2, 21]: 0/0%
fraction of MMC- and DEB-exposed cells with radial forms [3, 22]: 10%
fraction of MMC- and DEB-exposed cells with radial forms [3, 23]: 30%
fraction of MMC- and DEB-exposed cells with radial forms [4, 24]: 20%
fraction of MMC- and DEB-exposed cells with radial forms [4, 25]: 48%

CO[C@@]12[C@H](COC(N)=O)C3=C(C(=O)C(C)=C(N)C3=O)N1C[C@@H]1N[C@@H]12 [MMC, Mitomycin C]
Radials (%) OSE MMC/DEB ([1]; case OV-CA 1 (carcinoma)): 14%
Radials (%) OSE MMC/DEB ([1]; case OV-CA 2 (carcinoma)): 12%
Radials (%) OSE MMC/DEB ([1]; case OV-CA 3 (carcinoma)): 16%
Radials (%) OSE MMC/DEB ([1]; case OV-CA 4 (carcinoma)): 70%
Radials (%) OSE MMC/DEB ([1]; case OV-CA 5 (carcinoma)): 12%
Radials (%) OSE MMC/DEB ([1]; case OV-CA 6 (carcinoma)): 66/N.D. %
Radials (%) OSE MMC/DEB ([1]; case OV-CA 7 (carcinoma)): 0/N.D. %
Radials (%) OSE MMC/DEB ([1]; case OV-CA 8 (carcinoma)): 33/N.D. %
Radials (%) OSE MMC/DEB ([1]; case OV-HR 1 (high-risk)): 10%
Radials (%) OSE MMC/DEB ([1]; case OV-HR 2 (high-risk)): 50%
Radials (%) OSE MMC/DEB ([1]; case OV-HR 3 (high-risk)): 64%
Radials (%) OSE MMC/DEB ([1]; case OV-HR 4 L (high-risk)): 66%
Radials (%) OSE MMC/DEB ([1]; case OV-HR 5 L (high-risk)): 47%
Radials (%) OSE MMC/DEB ([1]; case OV-HR 5 R (high-risk)): 30%
Radials (%) OSE MMC/DEB ([1]; case OV-NL 1 (normal)): 0/0%
Radials (%) OSE MMC/DEB ([1]; case OV-NL 2 (normal)): 0/0%
Radials (%) OSE MMC/DEB ([1]; case OV-NL 3 (normal)): 2%
Radials (%) OSE MMC/DEB ([1]; case OV-NL 4 (normal)): 4%
Radials (%) OSE MMC/DEB ([1]; case OV-NL 5 (normal)): 1/1%
Radials (%) OSE MMC/DEB ([1]; case OV-NL 6 L (normal)): 0/0%
Radials (%) OSE MMC/DEB ([1]; case OV-NL 6 R (normal)): 0/0%
Radials (%) OSE MMC/DEB ([1]; case OV-NL 7 (normal)): 1%
Radials (%) OSE MMC/DEB ([1]; case OV-NL 8 (normal)): 3/3%
Radials (%) OSE MMC/DEB ([1]; case OV-NL 9 L (normal)): 0/0%
Radials (%) OSE MMC/DEB ([1]; case OV-NL 9 R (normal)): 0/0%
Radials (%) PBML MMC/DEB [2, 5]: 2%
Radials (%) PBML MMC/DEB [2, 6]: 1%
Radials (%) PBML MMC/DEB [2, 7]: 1/1%
Radials (%) PBML MMC/DEB [2, 8]: 4%
Radials (%) PBML MMC/DEB [2, 9]: 2%
Radials (%) PBML MMC/DEB [2, 10]: 1/1%
Radials (%) PBML MMC/DEB [2, 11]: 0%
Radials (%) PBML MMC/DEB [2, 12]: 3%
Radials (%) PBML MMC/DEB [2, 13]: 0/0%
Radials (%) PBML MMC/DEB [2, 14]: 0/0%
Radials (%) PBML MMC/DEB [2, 15]: 1%
Radials (%) PBML MMC/DEB [2, 16]: 0/0%
Radials (%) PBML MMC/DEB [2, 17]: 0%
Radials (%) PBML MMC/DEB [2, 18]: 0/0%
Radials (%) PBML MMC/DEB [2, 19]: 0/0%
Radials (%) PBML MMC/DEB ([2]; lymphocytes of case OV-NL 6 L (normal)): 0/N.D. %
Radials (%) PBML MMC/DEB ([2]; lymphocytes of case OV-NL 6 R (normal)): 0/N.D. %
Radials (%) PBML MMC/DEB [2, 20]: 0/0%
Radials (%) PBML MMC/DEB [2, 21]: 0/0%
fraction of MMC- and DEB-exposed cells with radial forms [3, 22]: 32%
fraction of MMC- and DEB-exposed cells with radial forms [3, 23]: 60%
fraction of MMC- and DEB-exposed cells with radial forms [4, 24]: 56%
fraction of MMC- and DEB-exposed cells with radial forms [4, 25]: 70%
